Measured values as given in patent US20230128114A1, “METHODS AND COMPOSITIONS FOR TREATING OR PREVENTING AN INFLAMMATORY CONDITION” (priority 2020, published 2023).

Test: Solubility of formulations for in vivo analysis (visual observation)
Format: physicochemical
Description: Cannabidiol (CBD) and hydroxychloroquine (HCQ), were purchased by Pharmacology Discovery Services Taiwan, Ltd. The formulations are summarised in Table 3.

Solubil.: I
SMILES: C[C@@H]1C[C@H]2[C@@H]3CCC4=CC(=O)C=C[C@]4(C)[C@@]3(F)[C@@H](O)C[C@]2(C)[C@@]1(O)C(=O)CO [Dexamethasone]
